Test results taken from patent publication US20240352145A1, “EFFICACY OF ANTI-TROP-2-SN-38 ANTIBODY DRUG CONJUGATES FOR THERAPY OF TUMORS RELAPSED/REFRACTORY TO CHECKPOINT INHIBITORS” (Immunomedics, Inc., priority 2016, published 2024).

What was measured:
BxPC-3 [1] = assay: ADCC activity of hRS7-ADC conjugates; format: cell-based, human; details: 33.3 nM; PBMC effector to target ratio 100:1
Text: PBMCs were purified from blood purchased from the Blood Center of New Jersey. A Trop-2-positive human pancreatic adenocarcinoma cell line (BxPC-3) was used as the target cell line with an effector to target ratio of 100:1.

Capan-1 = assay: Combination 90Y-hPAM4 RAIT + ADC, Capan-1 xenograft; format: in vivo, mouse
Text: Objective responses occurred in most animals, but they were more robust in both of the combination groups as compared to each agent given alone. […] These studies provide the first evidence that combined radioimmunotherapy and ADC enhances efficacy at safe doses.

rhTrop-2/TACSTD2 = target: T1, rhTrop-2/TACSTD2 (Homo sapiens, UniProt P09758); assay: Surface plasmon resonance (BIACORE), Trop-2; format: binding; details: for Kd: low-density Trop-2 chip, three independent runs, read-out: binding affinity (KD)
T1 construct: purchased Sino Biological, Inc
T1 sequence (P09758 27-323): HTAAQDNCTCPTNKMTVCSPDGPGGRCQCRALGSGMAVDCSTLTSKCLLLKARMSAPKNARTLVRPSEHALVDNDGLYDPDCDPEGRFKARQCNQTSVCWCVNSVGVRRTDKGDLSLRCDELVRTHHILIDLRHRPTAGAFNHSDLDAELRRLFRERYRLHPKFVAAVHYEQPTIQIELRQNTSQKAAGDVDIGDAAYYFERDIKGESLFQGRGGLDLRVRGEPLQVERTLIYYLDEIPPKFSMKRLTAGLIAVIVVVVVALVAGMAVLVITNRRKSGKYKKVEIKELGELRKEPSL
Text: (§1) Surface Plasmon Resonance Binding (BIACORE)—Briefly, rhTrop-2/TACSTD2 (Sino Biological, Inc.) or recombinant human neonatal receptor (FcRn), produced as described (Wang et al., 2011, Drug Metab Dispos 39:1469-77), was immobilized with an amine coupling kit (GE Healthcare; Cat. No. BR-1000-50) on a CM5 sensor chip (GE Healthcare; Cat. #BR-1000-12) following manufacturer's instructions for a low-density chip. […] Each set would make up a separate run on the BIACORE (BIACORE-X; Biacore Inc., Piscataway, NJ) and data were analyzed using BIAevaluation Software (Biacore Inc., v4.1). Analysis was performed with a 1:1 (Langmuir) Binding Model and Fit, using all five concentration points for each sample run to determine the best fit (lowest χ^2 value). The KDvalue was calculated using the formula KD=kd1/ka1, where kd1 is the dissociation rate-constant and ka1 is the association-rate constant.

COLO 205 tumors = assay: COLO 205 xenograft therapy; format: in vivo
Method: (§2) NCr female athymic nude (nu/nu) mice, 4 to 8 weeks old, and male Swiss-Webster mice, 10 weeks old, were purchased from Taconic Farms. […] Tumor volume (TV) was determined by measurements in 2 dimensions using calipers, with volumes defined as: L×w^2/2, where L is the longest dimension of the tumor and w is the shortest. […] This dosing frequency reflected a consideration of the conjugate's serum half-life in vitro, to allow a more continuous exposure to the ADC.
(§3) Statistics—Growth curves are shown as percent change in initial TV over time. Statistical analysis of tumor growth was based on area under the curve (AUC). Profiles of individual tumor growth were obtained through linear-curve modeling. An f-test was employed to determine equality of variance between groups before statistical analysis of growth curves. A 2-tailed t-test was used to assess statistical significance between the various treatment groups and controls, except for the saline control, where a 1-tailed t-test was used (significance at P≤0.05). Statistical comparisons of AUC were performed only up to the time that the first animal within a group was euthanized due to progression.

[2] = tested on: SK-MES-1 human squamous cell lung tumors; assay: SK-MES-1 xenograft therapy; format: in vivo; details: for tumor volume (TV): 0.4 mg/kg, 28 days
Method: as §2, §3

p21^Waf1/Cip1 and p53 [3] = assay: Signaling events (p21Waf1/Cip1, p53) in BxPC-3; format: cell-based, human
Text: (§4) Our initial studies examined the expression of 2 proteins involved in early signaling events (p21^Waf1/Cip1 and p53) and 1 late apoptotic event [cleavage of poly-ADP-ribose polymerase (PARP)] in vitro (not shown).

p21^Waf1/Cip1 and p53 [4] = assay: Signaling events (p21Waf1/Cip1, p53) in Calu-3; format: cell-based, human
Text: as §4

Trop-2 = target: T2, Trop-2 (Homo sapiens, UniProt P09758); assay: In vitro cell binding, multiple cell lines; parameters: endogenous in cells; host or cells: human cancer cell lines (ATCC)
T2 sequence (P09758 27-323): T1 sequence (P09758 27-323)
Method: In Vitro Cell Binding—LumiGLO Chemiluminescent Substrate System (KPL, Gaithersberg, MD) was used to detect antibody binding to cells. Briefly, cells were plated into a 96 black-well, flat-clear-bottom plate overnight. Antibodies were serially diluted 1:2 and added in triplicate, yielding a concentration range from 0.03 to 66.7 nM. After incubating for 1 h at 4° C., the media was removed and the cells washed with fresh cold media followed by the addition of a 1:20,000 dilution of goat-antihuman horseradish peroxidase-conjugated secondary antibody (Jackson Immunoresearch, West Grove, PA) for 1 h at 4° C. The plates were again washed before the addition of the LumiGLO reagent. Plates were read for luminescence using an Envision plate reader (Perkin Elmer, Boston MA). Data were analyzed by non-linear regression to determine the equilibrium dissociation constant (KD). Statistical comparisons of KD-values were made with Prism GraphPad Software (v4.03) (Advanced Graphics Software, Inc.; Encinitas, CA) using an F-Test on the best-fit curves for the data. Significance was set at P<0.05.

BxPC-3 [5] = assay: dsDNA breaks, γH2AX induction in BxPC-3; format: cell-based, human; details: for Mean Fluorescence Intensity, γH2AX: untreated 2516 ± 191
Method: Assessment of Double-Stranded DNA Breaks In Vitro—For drug activity testing, BxPC-3 cells were seeded in 6-well plates at 5×10^5 cells/well and held at 37° C. overnight. […] The following morning, cells were trypsinized briefly, spun down, stained with Fixable Viability Stain 450 (BD Biosciences, San Jose, CA), washed with 1% BSA-PBS, and then fixed in 4% formalin for 15 min, washed again and permeabilized in 0.15% Triton-X100 in PBS for another 15 min. After washing twice with 1% BSA-PBS, cells were incubated with mouse anti-γH2AX-AF488 (EMD Millipore Corporation, Temecula, CA) for 45 min at 4° C. The signal intensity of γH2AX was measured by flow cytometry using a BD FACSCanto (BD Biosciences, San Jose, CA).

[6] = target: T3, recombinant human neonatal receptor (FcRn) (Homo sapiens, UniProt P55899); assay: Surface plasmon resonance (BIACORE), FcRn; format: binding; details: low-density FcRn chip, three independent runs
T3 construct: made in house
T3 sequence (P55899 24-297 limits assumed): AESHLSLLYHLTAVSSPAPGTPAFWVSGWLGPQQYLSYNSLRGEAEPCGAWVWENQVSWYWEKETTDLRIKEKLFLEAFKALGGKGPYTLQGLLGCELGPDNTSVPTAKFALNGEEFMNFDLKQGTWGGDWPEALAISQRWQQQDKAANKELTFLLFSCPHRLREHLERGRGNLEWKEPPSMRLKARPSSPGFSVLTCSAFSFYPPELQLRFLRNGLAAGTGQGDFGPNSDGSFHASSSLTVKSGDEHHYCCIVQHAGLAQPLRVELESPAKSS
T3 sequence (P61769 21-119 partner): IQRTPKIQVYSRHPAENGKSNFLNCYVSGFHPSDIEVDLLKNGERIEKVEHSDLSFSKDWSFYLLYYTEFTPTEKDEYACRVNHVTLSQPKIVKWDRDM
Text: as §1

[7] = mouse, in vivo
Text: Pharmacokinetics—Naive female NCr nude (nu/nu) mice, 8-10 weeks old, were purchased from Taconic Farms (Germantown, NY). […] ELISA was utilized to determine serum concentrations of total hRS7 IgG by competing for the binding to an anti-hRS7 IgG idiotype antibody with a horseradish peroxidase conjugate of hRS7. […] Pharmacokinetic (PK) parameters were computed by noncompartmental analysis using Phoenix WinNonlin software (version 6.3; Pharsight Corp., Mountainview, CA).

CDC activity = format: cell-based

Row | Substance | specific lysis (ADCC) (BxPC-3 [1]) | Kd (rhTrop-2/TACSTD2) | tumor volume (TV) [2] | exposure time at which p53 upregulation is evident (p21^Waf1/Cip1 and p53 [3]) | exposure time at which p53 upregulation is evident (p21^Waf1/Cip1 and p53 [4]) | KD (Trop-2) | Mean Fluorescence Intensity, γH2AX (BxPC-3 [5]; BxPC-3, 20 μg/ml for 30 min) | Kd [6] | alpha half-life of hRS7 IgG ([7]; iv, 200 ug) | beta half-life of hRS7 IgG ([7]; iv, 200 ug) | CDC activity (CDC activity) | also measured
1 | hRS7 IgG | 8.5% | 0.51 ± 0.04 nM | 1.30±1.08 cm^3 | 48 h | 48 h | sub-nanomolar range | 2297 ± 18 | 92.4 ± 5.7 nM | approximately 3 h | ~200 h | no CDC activity | anti-tumor activity of unconjugated antibodies (Capan-1; given alone): Neither unconjugated hPAM4 nor hRS7 antibodies had anti-tumor activity; tumor volume (TV) (COLO 205 tumors; 0.4 mg/kg, q4dx8, 28-day treatment period): 1.77±0.93 cm^3; Percent Positive, γH2AX (BxPC-3 [5]; BxPC-3, 20 μg/ml for 30 min, untreated 18.8 ± 6.3): 13.0 ± 0.6%
2 | IMMU-132 | no difference between hRS7-NEM and sacituzumab govitecan | 0.26 ± 0.14 nM | 0.36±0.25 cm^3 | ≤ 24 h | ≤ 24 h | sub-nanomolar range | 5349 ± 234 | 192 ± 47.6 nM | approximately 3 h | ~200 h | no CDC activity | tumor-free mice after 20 weeks (Capan-1; 75 μCi 90Y-hPAM4 level, ADC alone, or their combination, n=10): 1 of 10; improvement in KD vs naked hRS7 (rhTrop-2/TACSTD2; BIACORE): 2 fold; tumor growth vs untreated and hA20-CL2A-SN-38 (COLO 205 tumors; 0.4 mg/kg SN-38 twice weekly x 4 weeks): significantly inhibited tumor growth; tolerability, body weight loss ([2]; in all murine studies): well tolerated in terms of body weight loss; induction of γH2AX vs non-targeting control ADC (BxPC-3 [5]; BxPC-3, 30 min exposure): greater than two-fold induction; MRT of carrier hRS7 antibody [7]: ~300 h; half-life of intact conjugate ([7]; iv, 200 ug): 11 h
